Reference: patent publication US20240351996A1, “CDK19-SELECTIVE INHIBITORS, AND METHODS OF USE THEREOF” (CZ BIOHUB SF, LLC, priority 2022, published 2024)

How the values were obtained:
CDK8 = CDK8 (Homo sapiens, UniProt P49336); test: LanthaScreen europium kinase binding assay (FRET displacement), CDK8
Protocol: (§1) FRET Displacement Assay to Measure IC50: The CDK19/CDK8 IC50 values were measured to evaluate activity and to determine CDK19/CDK8 selectivity. The IC50 values of the disclosed compounds was measured using a LanthaScreen™ europium kinase binding assay (ThermoFisher), as described herein.
[…] An aliquot of the cocktail solution (10 μL) was added to each well of a LUMITRAC™ 200:384 flat bottom, non-treated microtiter white plate. The plate was then covered to protect light sensitive reagents and incubated for 30 min at room temperature to equilibrate before addition of any inhibitors.
(§2) A serial dilution of the compounds was titrated into each well using an automated liquid handling Staccato integrated system at the following concentration(s) (Log10 Molar [C]): −4.5, −5.0, −5.5, −6.0, −6.5, −7.0, −7.5, −8.0 so that a complete dose-response could be calculated. A Tecan microplate reader infinite m200 instrument was then used to measure the FRET signal of each individual well using an excitation of 317/20 nm, emission europium of 620/12 nm, and emission kinase tracer of 665/12 nm after a 3 h incubation period at room temperature until steady-state kinetics were achieved.
(§3) Results were performed in duplicate and were repeated a total of 3 independent times before data was normalized to the DMSO control group and IC50 values reported.

CDK19/CycC = CDK19/CycC (Homo sapiens, UniProt Q9BWU1); test: LanthaScreen europium kinase binding assay (FRET displacement), CDK19; conditions: for IC50: his-tagged CDK19/CycC 5 nM, tracer 10 nM, 3 h incubation; for CDK19 Selectivity: CDK19/CDK8 selectivity based on IC50 values
Sequence of CDK19/CycC (Q9BWU1 whole entry): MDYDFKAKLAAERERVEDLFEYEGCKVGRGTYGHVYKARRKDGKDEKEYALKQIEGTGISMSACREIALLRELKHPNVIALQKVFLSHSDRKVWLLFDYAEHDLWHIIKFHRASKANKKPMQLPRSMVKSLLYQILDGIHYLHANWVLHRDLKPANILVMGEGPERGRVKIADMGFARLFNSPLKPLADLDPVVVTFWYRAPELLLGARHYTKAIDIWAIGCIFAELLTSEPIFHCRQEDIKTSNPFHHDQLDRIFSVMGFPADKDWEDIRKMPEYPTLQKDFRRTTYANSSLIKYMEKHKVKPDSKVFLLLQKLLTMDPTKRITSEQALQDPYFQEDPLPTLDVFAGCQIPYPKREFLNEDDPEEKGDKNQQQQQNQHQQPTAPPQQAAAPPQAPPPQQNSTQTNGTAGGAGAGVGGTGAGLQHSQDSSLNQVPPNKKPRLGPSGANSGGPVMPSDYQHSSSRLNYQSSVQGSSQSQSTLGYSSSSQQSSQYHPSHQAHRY
Sequence of CDK19/CycC (P24863 whole entry partner): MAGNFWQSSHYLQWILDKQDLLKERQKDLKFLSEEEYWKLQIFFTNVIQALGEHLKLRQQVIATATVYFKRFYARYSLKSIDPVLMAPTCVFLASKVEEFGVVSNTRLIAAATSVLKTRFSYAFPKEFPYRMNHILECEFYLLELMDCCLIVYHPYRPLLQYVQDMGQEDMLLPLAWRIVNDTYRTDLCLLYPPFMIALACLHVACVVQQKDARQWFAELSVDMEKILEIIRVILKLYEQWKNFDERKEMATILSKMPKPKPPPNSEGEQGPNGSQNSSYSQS
Protocol: as §1
To a kinase buffer cocktail solution (i.e., 5× Kinase Buffer A) was added: purified recombinant his-tagged CDK19/CycC protein (5 nM), ATP-competitive kinase inhibitor scaffold kinase tracer Alexa Fluor® 665 (10 nM), biotin anti-his tag antibody (2 nM), LanthaScreen® europium-streptavidin (2 nM). An aliquot of the cocktail solution (10 μL) was added to each well of a LUMITRAC™ 200:384 flat bottom, non-treated microtiter white plate. The plate was then covered to protect light sensitive reagents and incubated for 30 min at room temperature to equilibrate before addition of any inhibitors.
as §2, §3

Sequence of CDK8 (P49336 whole entry): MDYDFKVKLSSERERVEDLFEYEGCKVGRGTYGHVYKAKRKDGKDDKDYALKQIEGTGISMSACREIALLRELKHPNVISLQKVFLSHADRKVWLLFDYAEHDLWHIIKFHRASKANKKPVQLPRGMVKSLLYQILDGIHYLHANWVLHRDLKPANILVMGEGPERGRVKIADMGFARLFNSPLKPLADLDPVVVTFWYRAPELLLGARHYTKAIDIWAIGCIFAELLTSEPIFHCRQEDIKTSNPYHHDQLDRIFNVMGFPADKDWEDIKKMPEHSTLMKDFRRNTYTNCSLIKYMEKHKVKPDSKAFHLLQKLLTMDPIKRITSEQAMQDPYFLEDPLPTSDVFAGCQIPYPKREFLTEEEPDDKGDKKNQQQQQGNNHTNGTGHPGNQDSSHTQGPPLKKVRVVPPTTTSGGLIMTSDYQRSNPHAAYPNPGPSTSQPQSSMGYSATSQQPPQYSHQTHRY
Sequence of CDK8 (P24863 whole entry partner): as the sequence (P24863 whole entry partner) above

SMILES	IC50 (CDK8) [nM]	IC50 (CDK19/CycC) [nM]	CDK19 Selectivity (CDK19/CycC)
CC(C)Cc1ccc(Nc2ncc(-c3ccc(C#N)cc3)cn2)cc1 [Compound A89]	10000	10000	–
Fc1ccc(Nc2ccc(Oc3ccncc3)cn2)cc1 [Compound A81]	10000	10000	–
c1ccc2c(Nc3cnc(Nc4ccc(CC5CC5)cc4)nc3)ccnc2c1 [Compound A43]	37	6	6
CCOc1ccc(Nc2ncc(Nc3ccncc3C(F)(F)F)cn2)cc1 [Compound A178]	10	≤ 2.5	–
Cc1cc(-c2cnc(Nc3ccc(CC(C)C)cc3)nc2)cc(C)n1 [Compound A101, 5-(2,6-dimethylpyridin-4-yl)-N-(4-isobutylphenyl)pyrimidin-2-amine]	3840	822	4.7
FC(F)C(F)(F)Oc1ccc(Nc2ncc(Nc3ccncc3OC3CCCC3)cn2)cc1 [Compound A67]	106	106	1
CC(C)Cc1ccc(Nc2ncc(Nc3ccncc3C#Cc3ccccc3)cn2)cc1 [Compound A156]	248	54	5
CC(C)Cc1ccc(Nc2ccc(-c3cccnc3)cn2)cc1 [Compound A82]	193	131	1.5
CCc1cnc(C)cc1Nc1cnc(Nc2ccc(CC(C)C)cc2)nc1 [Compound A64]	905	389	2.3
CC(C)Cc1ccc(Nc2ncc(-c3cccnc3)cn2)cc1 [Compound A87]	198	84	2.4
O=C(c1ccncc1)c1cnc(Nc2ccc(F)cc2)nc1 [Compound A69]	2670	1410	1.9
CC(C)Cc1ccc(Nc2ncc(C(=O)c3ccncc3OC3CCCC3)cn2)c(F)c1 [Compound A176]	13	7	2
CC(C)Cc1ccc(Nc2ncc(Nc3ccncc3OC3CCCCC3)cn2)cc1 [Compound A54]	35	45	0.8
c1cc(Nc2cnc(Nc3ccc(C4CCOCC4)cc3)nc2)c(OC2CCCC2)cn1 [Compound A180]	6	4	–
Cc1cc(C(=O)c2cnc(Nc3ccc(CC(C)C)cc3)nc2)ccn1 [Compound A71]	6	≤ 2.5	3
CC(C)Cc1ccc(Nc2ncc(Cc3ccncc3)cn2)cc1 [Compound A138]	24	5	4.8
Cc1cnccc1Nc1cnc(Nc2ccc(C3CCC3)cc2)nc1 [Compound A147]	15	13	1
c1cc(Nc2cnc(Nc3ccc(C4CC4)cc3)nc2)ccn1 [Compound A16]	371	133	2.8
O=C(c1cnc(Nc2ccc(C3CCOCC3)cc2)nc1)c1ccncc1OC1CCCC1 [Compound A179]	≤ 2.5	≤ 2.5	≤1

SMILES	IC50 (CDK8) [nM]	IC50 (CDK19/CycC) [nM]	CDK19 Selectivity (CDK19/CycC)
O=C(NC1CCCC1)c1cnccc1Nc1cnc(Nc2ccc(C3CCCCC3)cc2)nc1 [Compound A151]	–	1110	–
Cc1cnc2ccccc2c1Nc1cnc(Nc2ccc(CC(C)C)cc2)nc1 [Compound A12]	34	38	0.9
CC(C)Cc1ccc(Nc2ccc(C(=O)c3ccncc3)cn2)cc1 [Compound A78]	13	5	2.6
CC(C)Cc1ccc(Nc2ncc(-c3ccc(C#N)cn3)cn2)cc1 [Compound A95]	10000	10000	–
Cc1cc(Nc2cnc(Nc3cccc(C4CC4)c3)nc2)ccn1 [Compound A24]	10000	9870	–
CC(C)Cc1cccc(Nc2ncc(Nc3ccnc(C(C)C)c3)cn2)c1 [Compound A34]	4510	903	5
CC(C)Cc1ccc(Nc2ncc(Nc3ccncc3)cn2)cc1 [Compound A140]	–	–	2.5
COc1cc(CC(C)C)ccc1Nc1ncc(C(=O)c2ccncc2)cn1 [Compound A131]	10	5.7	1.8
Cc1cc(Nc2cnc(Nc3ccc(CC(C)C)cc3)nc2)ccn1 [Compound A8]	–	–	3.3
Cc1nc(Nc2ccc(CC(C)C)cc2)ncc1Nc1ccncc1 [Compound A6]	210	38	5.5
Cc1ccc2nccc(Nc3cnc(Nc4ccc(CC(C)C)cc4)nc3)c2c1 [Compound A13]	56	24	2.4
Cc1cncc(C)c1Nc1cnc(Nc2ccc(CC(C)C)cc2)nc1 [Compound A66]	5.8	4.6	1.2
CC(C)Cc1cccc(Nc2ncc(Nc3ccncc3)cn2)c1 [Compound A28]	2730	1640	1.7
Cc1cccc(-c2cnc(Nc3ccc(CC(C)C)cc3)nc2)c1 [Compound A86]	10000	1110	9
COc1cc(Nc2cnc(Nc3cccc(CC(C)C)c3)nc2)ccn1 [Compound A33]	2870	965	3
Cc1cnccc1Nc1cnc(Nc2cccc(CC(C)C)c2)nc1 [Compound A32]	1320	378	3.5
CC(C)Cc1ccc(Nc2ccc(C(=O)c3cccnc3)cn2)cc1 [Compound A200]	2380	1340	2
FC(F)(F)Oc1ccc(Nc2ncc(Nc3ccncc3)cn2)cc1 [Compound A145]	72	36	2
CC(C)Cc1ccc(Nc2ncc(-c3cc(C#N)ccn3)cn2)cc1 [Compound A96]	10000	1110	9

SMILES	IC50 (CDK8) [nM]	IC50 (CDK19/CycC) [nM]	CDK19 Selectivity (CDK19/CycC)
CC(C)Cc1ccc(Nc2ncc(C(F)(F)c3ccncc3)cn2)cc1 [Compound A161]	20	9	2
FC(F)C(F)(F)Oc1ccc(Nc2ncc(Nc3ccncc3)cn2)cc1 [Compound A19]	38	9.1	4.2
COc1cc(CC(C)C)ccc1Nc1ncc(C(=O)c2ccncc2OC2CCCC2)cn1 [Compound A171]	25	16	2
CC(C)Cc1ccc(Nc2ncc(Nc3ccncc3Cl)cn2)cc1 [Compound A57]	3	≤ 2.5	2
CC(C)Cc1ccc(Nc2ncc(C(=O)c3ccncc3OC3CCCC3)cn2)cc1 [Compound A170]	7	4	2
Cc1cc(Nc2cnc(Nc3ccc(C4CC4)cc3)nc2)cc(C)n1 [Compound A18]	10000	10000	–
Cc1cncc(F)c1C(=O)c1cnc(Nc2ccc(CC(C)C)cc2)nc1 [Compound A117]	10000	6490	1.5
Cc1cnccc1Nc1cnc(Nc2ccc(CC(C)C)cc2F)nc1 [Compound A59]	23	11	2
Cc1ccc(C#N)cc1-c1cnc(Nc2ccc(CC(C)C)cc2)nc1 [Compound A93]	276	132	2
Cc1cncc(F)c1Nc1cnc(Nc2ccc(CC(C)C)cc2)nc1 [Compound A62]	3	≤ 2.5	1.5
CC(C)Cc1ccc(Nc2ncc(C(=O)c3ccncc3F)cn2)cc1 [Compound A116]	4.1	≤ 2.5	1.9
CC(C)Cc1ccc(Nc2ncc(-c3cccc(C#N)c3)cn2)cc1 [Compound A92]	1020	335	3
c1cc(Nc2cnc(Nc3ccc(C4COC4)cc3)nc2)c(OC2CCCC2)cn1 [Compound A2]	14	11	1.2
CC(C)Cc1ccc(Nc2ncc(C(=O)c3ccncc3)cn2)cc1 [Compound A70]	46	≤ 2.5	≥18
CC(C)Cc1ccc(Nc2ncc(Nc3ccncc3-c3cnn(C4CC4)c3)cn2)cc1 [Compound A158]	16	24	–
Cc1cc(CC(C)C)cc(Nc2ncc(Nc3ccncc3)cn2)c1 [Compound A40]	–	25000	–
CC(C)Cc1ccc(Nc2ncc(Nc3ccncc3)cn2)cc1 [Compound A5]	–	–	3
Cc1cc(Nc2cnc(Nc3ccc(CC(C)C)cc3)nc2)ccn1 [Compound A144]	–	–	2.5
